Values quoted from earlier work in US20150104527A1, “AQUEOUS IONIC SOLUTION CONTAINING SEAWATER AND AT LEAST ONE COMPOUND THAT IS ORIGINALLY IMMISCIBLE WITH SEA WATER” (LABORATOIRE DE LA MER, priority 2011, published 2015).

Legend:
[1] = tested on: nasal mucus membrane; details: observed in patients even for short use; Graf P et al, 1999
[2] = tested on: human neutrophiles; details: even at low concentration; Boston et al, 2003

- effect on the nasal mucus membrane [1]: deleterious effects
Substance: benzalkonium chloride
- toxicity for human neutrophiles [2]: toxic
